Data from patent US4108726A, “Sarcoidosis test” (Research Corporation, priority 1976, dated 1978).
Where a SMILES comes first, the peptide text is derived from it. The star is where a group is joined. Bz = O=C(c1ccccc1)*

What was measured:
[1] = tested on: L-histidyl-L-leucine peptidase; assay: Hydrolysis of L-histidyl-L-leucine by human serum peptidase, fluorimetric; type: biochemical; settings: estimated from 1/v-1/S plots
Procedure: Hydrolysis of the product L-histidyl-L-leucine was determined fluorimetrically by adding L-histidyl-L-leucine to an assay mixture which contained buffer and serum and was handled as described for the enzyme assays, including a zero time control. Hydrolysis was accompanied by a decrease in fluorescence from that obtained with the initial concentration as determined in the zero time control. The quantity hydrolyzed was determined by multiplying the fraction hydrolyzed (decrease in FI/initial FI) by the initial concentration. No correction was made for the fluorescence of L-histidine since it was only about 8% of the fluorescence of L-histidyl-L-leucine.
The activity of the L-histidyl-L-leucine hydrolyzing activity was measured in several sera under the conditions of the orginal assay (50 μl sera in 125 μl 0.1 M K phosphate-0.3 M NaCl, pH 8.3) using as substrate 0.2 mM L-histidyl-L-leucine, a concentration typically formed in the angiotensin converting enzyme reaction mixture. […] The velocity of the L-histidyl-L-leucine peptidase reaction was determined at varying L-histidyl-L-leucine concentrations. The Km for L-histidyl-L-leucine of the peptidase was estimated from l/.nu.-l/S plots, see Lineweaver, H. and Burk, D. (1934). J. Amer. Chem. Soc. 56, 658, to be 0.16 mM. […]

[2] = tested on: porcine lung L-histidyl-L-leucine peptidase; settings: Lee, Larue and Wilson 1971; cited from earlier work
[3] = biological target: serum angiotensin-converting enzyme (Homo sapiens, UniProt P12821); assay: Spectrofluorimetric serum angiotensin converting enzyme assay with hippuryl-L-histidyl-L-leucine substrate; type: biochemical; settings: FIG. 2
serum angiotensin-converting enzyme, sequence (P12821 30-1232): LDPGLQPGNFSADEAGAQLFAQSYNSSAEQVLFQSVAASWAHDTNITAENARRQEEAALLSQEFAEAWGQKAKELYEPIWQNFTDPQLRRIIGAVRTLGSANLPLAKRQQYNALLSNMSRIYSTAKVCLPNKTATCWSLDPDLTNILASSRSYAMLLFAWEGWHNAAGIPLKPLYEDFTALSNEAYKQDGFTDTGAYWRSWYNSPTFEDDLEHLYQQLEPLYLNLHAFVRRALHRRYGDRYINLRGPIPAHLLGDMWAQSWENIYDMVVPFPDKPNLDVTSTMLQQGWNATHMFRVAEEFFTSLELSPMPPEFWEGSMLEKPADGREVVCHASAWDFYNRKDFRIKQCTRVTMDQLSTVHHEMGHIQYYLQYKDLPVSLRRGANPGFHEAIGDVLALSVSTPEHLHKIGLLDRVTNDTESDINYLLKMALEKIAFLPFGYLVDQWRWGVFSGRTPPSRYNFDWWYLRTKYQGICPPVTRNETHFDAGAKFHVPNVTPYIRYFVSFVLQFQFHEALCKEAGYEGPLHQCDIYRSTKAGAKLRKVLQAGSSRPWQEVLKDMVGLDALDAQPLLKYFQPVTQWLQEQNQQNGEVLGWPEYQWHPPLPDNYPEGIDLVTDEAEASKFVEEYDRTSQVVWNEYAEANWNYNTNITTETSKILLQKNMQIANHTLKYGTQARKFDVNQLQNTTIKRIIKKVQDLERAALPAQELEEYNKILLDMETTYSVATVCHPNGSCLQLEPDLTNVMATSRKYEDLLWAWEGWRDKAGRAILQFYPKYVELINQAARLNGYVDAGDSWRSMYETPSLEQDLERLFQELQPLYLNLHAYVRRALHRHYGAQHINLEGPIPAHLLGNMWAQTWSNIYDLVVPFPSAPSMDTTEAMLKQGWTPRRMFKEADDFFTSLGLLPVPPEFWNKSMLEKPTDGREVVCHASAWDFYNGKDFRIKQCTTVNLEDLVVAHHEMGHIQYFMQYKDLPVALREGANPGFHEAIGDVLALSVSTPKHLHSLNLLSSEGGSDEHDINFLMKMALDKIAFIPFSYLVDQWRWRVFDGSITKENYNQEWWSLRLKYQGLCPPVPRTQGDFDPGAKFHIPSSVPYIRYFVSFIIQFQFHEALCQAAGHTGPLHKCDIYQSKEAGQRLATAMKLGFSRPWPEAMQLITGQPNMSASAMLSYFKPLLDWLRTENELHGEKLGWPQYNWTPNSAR
Procedure: Substrate-buffer solution was prepared by mixing buffer, substrate and water at a ratio of 1:1:2.8 (final concentration in the assay mixture; 0.1M K phosphate, pH 8.3, 0.3M NaCl; 5mM hippuryl-L-histidyl-L-leucine).
Ten μl of serum was added to 240 μl of substrate-buffer solution at 37° C. in a 12 × 75 mm test tube tightly covered with Parafilm, mixed with a vortex mixer and incubated for 15 minutes at 37° C. Duplicate reaction mixtures were stopped by addition of 1.45 ml of 0.28 M NaOH and mixing with a vortex mixer. […] In order to keep the blank low, the development of fluorescence should be started as soon as possible after the addition of NaOH.
One hundred μl of o-phthaldialdehyde reagent was added to each tube which was mixed with a vortex mixer. […] The fluorescence was read in a 1 cm rectangular fluorescence cuvette in a Perkin-Elmer MPF-4 fluorimeter with 8 mm entrance and exit slits and a 7.5 V energy output between 30 and 90 minutes after addition of HCl, during which time it was stable. The excitation wavelength was 360 nm and the emission fluorescence wavelength was 500 nm.
Enzyme activity in nmoles L-histidyl-L-leucine/min/ml serum was calculated by two methods. The first is applicable for ratios of up to 2 of corrected assay/standard fluorescence. […]

[4] = Apparent hydrolysis of hippuryl-L-histidyl-L-leucine in NaOH; type: physicochemical; settings: 30 minutes between NaOH addition and fluorescence development
Procedure: Ten μl of serum was added to 240 μl of substrate-buffer solution at 37° C. in a 12 × 75 mm test tube tightly covered with Parafilm, mixed with a vortex mixer and incubated for 15 minutes at 37° C. Duplicate reaction mixtures were stopped by addition of 1.45 ml of 0.28 M NaOH and mixing with a vortex mixer. A substrate-buffer blank was similarly treated at the same time except that enzyme was added immediately after NaOH, and was an important control for the slow breakdown of hippuryl-L-histidine-L-leucine in NaOH. In order to keep the blank low, the development of fluorescence should be started as soon as possible after the addition of NaOH.
When large quantities of enzyme were used, this effect was small compared to the total fluorescence developed. However, the increase in fluorescence intensity of the blank in 30 minutes was equivalent to 1.3 nmol/min/ml and would result in a value 4% below the true one for an enzyme activity of 34 nmol/min/ml, which is in the normal range. To avoid spuriously high blanks due to base catalyzed hydrolysis, addition of NaOH to the blank, followed by enzyme, was made at the same time that NaOH was added to terminate the enzymatic reaction of the reacted samples.

[5] = tested on: angiotensin converting enzyme of rabbit lung; settings: rabbit lung enzyme system; Cushman and Cheung 1971; cited from earlier work
[6] = tested on: serum angiotensin converting enzyme; assay: Serum angiotensin converting enzyme assay with angiotensin I as substrate; type: biochemical, human
Procedure: Three mg of angiotensin I were dissolved in 10 ml buffer, 0.03125 M NaCl and 0.104 M potassium phosphate, pH 7.5. The optical density (O.D.) of the solution at 275 nM was measured against the buffer. The O.D. of the angiotensin I solution was adjusted to 0.272 by either adding more buffer or solid angiotensin I. Based on a mMolar extintion coefficient of 1.31 at 275 nM, the final concentration in the assay was 0.2 mM angiotensin I which is about 4-5 times the Km of this enzyme previously measured. Two hundred forty μl of the angiotensin I solution were added to each tube, then warmed to 37° C. […] of serum were added to each tube, sealed and incubated for 1 hour. […]
For fluorescence development, 100 μl of 2% o-phthaldialdehyde in methanol were added to each tube and mixed with a vortex mixer. […] The fluorescence was read in a 1 cm rectangular fluorescence cuvette in a Perkin-Elmer MPF-4 fluorimeter with a 4 mm entrance and 8 mm exit slit and a 7.5 V energy output between 30-90 minutes after the addition of HCl, during which time the fluorescence was stable. The excitation wavelength was […] and the emission fluorescence wavelength was […].
Calculation of enzymatic activity in nmoles L-histidyl-L-leucine released/min/ml of serum was calculated as follows: Angiotensin converting enzyme activity, nmole his-leu released/min/ml serum = [formula]

Molecule: CC(C)C[C@H](NC(=O)[C@@H](N)Cc1c[nH]cn1)C(=O)O [L-histidyl-L-leucine] (H-His-Leu-OH)
- Km [1]: 160 µM
- Km [2]: 200 µM

Molecule: CC(C)C[C@H](NC(=O)[C@H](Cc1c[nH]cn1)NC(=O)CNC(=O)c1ccccc1)C(=O)O [hippuryl-L-histidyl-L-leucine, Hippuryl-L-histidyl-L-leucine] (Bz-Gly-His-Leu-OH)
- Substrate concentration at maximum activity [3]: 5 mM
- Substrate concentration at which inhibition was noted [3]: 15 mM
- Increase in fluorescence intensity of the blank, as equivalent enzyme activity (base-catalyzed hydrolysis) [4]: 1.3 nmol/min/mL
- Km [5]: 2600 µM
- Substrate concentration above which inhibition was present [5]: above 10 mM

Molecule: angiotensin I (DRVYIHPFHL; Angiotensin-1; UniProt P01019 25-34, looked up) [decapeptide natural substrate of angiotensin converting enzyme]
- Activity as substrate compared with hippuryl-L-histidyl-L-leucine [6]: considerably lower
